In article PMC12579247, “Tanshinone IIA inhibits heat-induced growth of p53-mutant Huh-7 hepatocellular carcinoma by modulating osmotic homeostasis and glycolysis through targeting ALDH7A1” (Cell Death Discovery, 2025):

Target: T1, ALDH7A1 (Homo sapiens, UniProt P49419)
T1 construct: endogenous protein in heat-pretreated (44 °C) Huh-7 cells; CETSA on total protein extract, detected by Western blot
T1 sequence (P49419 27-539): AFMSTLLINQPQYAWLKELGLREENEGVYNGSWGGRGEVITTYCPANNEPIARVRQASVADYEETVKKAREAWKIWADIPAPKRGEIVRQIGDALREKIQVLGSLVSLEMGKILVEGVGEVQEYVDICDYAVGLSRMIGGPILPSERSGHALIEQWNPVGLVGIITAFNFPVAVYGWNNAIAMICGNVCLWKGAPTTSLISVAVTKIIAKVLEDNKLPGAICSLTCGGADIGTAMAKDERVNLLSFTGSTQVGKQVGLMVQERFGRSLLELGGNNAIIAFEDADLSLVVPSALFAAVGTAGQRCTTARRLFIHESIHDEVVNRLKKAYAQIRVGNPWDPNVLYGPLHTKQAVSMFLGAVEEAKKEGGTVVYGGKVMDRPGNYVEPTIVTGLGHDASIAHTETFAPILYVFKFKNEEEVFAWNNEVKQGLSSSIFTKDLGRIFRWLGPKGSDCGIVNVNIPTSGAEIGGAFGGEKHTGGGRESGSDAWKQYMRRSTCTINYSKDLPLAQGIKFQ
Experiment: CETSA, Western blot
Assay type: cell-based
Settings: 0, 4, 8 µM for 24 h in cells, extract then heated at 63 °C for 5 min; heat-pretreated Huh-7 cells

## Cc1coc2c1C(=O)C(=O)c1c-2ccc2c1CCCC2(C)C [Tan IIA]
  CETSA, Western blot: CETSA results showed that the binding of Tan IIA to ALDH7A1 was concentration-dependent
